Results on 29 compounds are retold here after US20230114241A1, “METHODS OF TREATING EPILEPSY USING THE SAME” (Trevena, Inc., priority 2019, published 2023).

A value given as a limit tells only on which side of the number the result lay.

Chain of human sphingosine-1-phosphate receptor 1 (S1P1) (P21453 whole entry): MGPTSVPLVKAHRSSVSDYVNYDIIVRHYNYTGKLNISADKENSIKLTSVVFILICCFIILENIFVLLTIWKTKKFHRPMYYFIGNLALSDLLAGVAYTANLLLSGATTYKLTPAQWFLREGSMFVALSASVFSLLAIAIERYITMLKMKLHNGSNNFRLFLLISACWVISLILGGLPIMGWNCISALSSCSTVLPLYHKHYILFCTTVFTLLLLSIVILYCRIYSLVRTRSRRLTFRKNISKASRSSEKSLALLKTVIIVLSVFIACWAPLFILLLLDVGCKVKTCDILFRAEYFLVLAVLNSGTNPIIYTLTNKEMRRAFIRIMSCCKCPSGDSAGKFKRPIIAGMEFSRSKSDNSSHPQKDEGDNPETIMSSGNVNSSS

One assay addresses human sphingosine-1-phosphate receptor 1 (S1P1) (Homo sapiens, UniProt P21453). The assay can be described thus: Inhibition of cAMP production (HTRF cAMP HiRange), S1P1 CHO-K1 cells. The note with it: inhibition of cAMP production, S1P1; read-out: hS1P1 CAMP pEC50 (converted). It counts as cell-based. On the procedure: Stable clonal Chinese hamster ovary K1 (CHO-K1) cells co-expressing EA-β-arrestin2 and the human sphingosine-1-phosphate receptor 1 (NM_001400, S1P1) with a C-terminal Prolink™ tag were purchased from DiscoverX corporation (Cat #: 93-0207C2).
Cell lines were cultured in AssayComplete™ Media 6 (DiscoverX Corporation, Cat #: 920018GF2) at 37° C. and 5% CO2 in a humidified CO2 and temperature-controlled incubator. To begin assay plating, cells were washed with Dulbecco's phosphate buffered saline (CellGro, Cat #: 21-031-CV) and lifted from the culturing flask by incubation (37° C., 5 min) with CellStripper (Cellgro, Cat #: 25-056-CI). […] Plated cells were incubated overnight at 37° C. and 5% CO2 in a humidified CO2 and temperature-controlled incubator.
Agonist-promoted G-protein responses were determined by measuring changes in intracellular cAMP using the HTRF® cAMP HiRange kit (CisBio, Cat #: 62AM6PEJ) based on time-resolved fluorescence resonance energy transfer (TR-FRET) technology. […] Following a 30-minute incubation at 37° C. and 5% CO2 in a humidified CO2 and temperature-controlled incubator, the components of the cAMP HiRange kit were added as per the manufacturer's instructions. After an hour incubation at room temperature, plates were analyzed by a BMG PheraStar microplate reader.
These values are normalized to fingolimod, a known agonist of the sphingosine-1-phosphate 1 receptor.
Background: Cyclic AMP is a second messenger, typically raised through Gs and lowered through Gi signalling.
Regarding `Cc1ccncc1-c1noc(-c2ccc3c(c2)nnn3C2CCOCC2)n1` [Compound 439, 5-[3-(4-methylpyridin-3-yl)-1,2,4-oxadiazol-5-yl]-1-(oxan-4-yl)-1H-1,2,3-benzotriazole], the EC50 is more than 316 nM.
As to `N#Cc1cc(-c2nnc(-c3ccc4[nH]cnc4c3)o2)ccc1NC(CF)CF` [Compound 600, 5-[5-(1H-1,3-benzo-diazol-5-yl)-1,3,4-oxadiazol-2-yl]-2-[(1,3-difluoropropan-2-yl)amino]benzonitrile], the EC50 is less than 316 nM.
For `CC(C)n1ccc2cc(-c3nc(-c4ccccc4F)cs3)ccc21` [Compound 403, 4-(2-fluorophenyl)-2-(1-isopropylindol-5-yl)thiazole], the EC50 is more than 316 nM.
Consider `CC(C)Oc1ccc(-c2ccc(-c3ccc4c(c3)nnn4C(C)C)cc2)cc1C#N` [Compound 506, 4-isopropoxy-4′-(1-isopropyl-1H-benzo[d][1,2,3]triazol-5-yl)-[1,1′-biphenyl]-3-carbonitrile], for which the EC50 is less than 316 nM.
Regarding `CCC1(CC)CC(=O)c2cc(-c3nc(-c4ccsc4)no3)ccc2N1` [Compound 554, 2,2-diethyl-6-(3-(thiophen-3-yl)-1,2,4-oxadiazol-5-yl)-2,3-dihydroquinolin-4(1H)-one], the EC50 is less than 316 nM.
On to `CC(C)n1nnc2cc(-c3nc4c(Br)cccc4o3)ccc21` [Compound 428, 4-bromo-2-(1-isopropylbenzotriazol-5-yl)-1,3-benzoxazole], for which the EC50 was more than 316 nM.
Regarding `Cc1cccc2oc(-c3ccc4c(c3)nnn4C(C)C)nc12` [Compound 418, 2-(1-isopropyl-1H-benzo[d][1,2,3]triazol-5-yl)-4-methyl-benzo[d]oxazole], the EC50 was less than 316 nM.
On the same count and under the same terms, as for `CC(C)(O)Cn1nnc2cc(-c3nc(-c4cocn4)no3)ccc21` [Compound 570, 2-methyl-1-{5-[3-(1,3-oxazol-4-yl)-1,2,4-oxadiazol-5-yl]-1H-1,2,3-benzotriazol-1-yl}propan-2-ol], the figure is more than 316 nM.

Staying with this assay, now noted: inhibition of cAMP production; potency; read-out: hS1P1 CAMP pEC50 (converted).
`COCC1(COC)CC(=O)c2cc(-c3nc(-c4cccnc4)no3)ccc2O1` [Compound 186, 2,2-bis(methoxy-methyl)-6-[3-(pyridin-3-yl)-1,2,4-oxadiazol-5-yl]-3,4-dihydro-2H-1-benzopyran-4-one]: the EC50 was more than 316 nM.
Same read-out and setting: next, `FC(F)(F)Oc1ccccc1-c1nc(-c2ccc3c(c2)nnn3C2CCCC2)no1` [Compound 84, 3-(1-cyclopentyl-1H-benzo[d][1,2,3]triazol-5-yl)-5-(2-(trifluoro-methoxy)phenyl)-1,2,4-oxadiazole]: more than 316 nM; `CCC1(CC)CC(=O)c2cc(-c3nc(-c4ccc(OC)nc4)no3)ccc2O1` [Compound 301, 2,2-diethyl-6-[3-(6-methoxy-3-pyridyl)-1,2,4-oxadiazol-5-yl]chroman-4-one]: more than 316 nM; `CC(C)n1nnc2cc(-c3nc(-c4ccccc4)no3)ccc21` [Compound 79, 5-(3-phenyl-1,2,4-oxadiazol-5-yl)-1-(propan-2-yl)-1H-1,2,3-benzotriazole]: less than 316 nM.
As to `c1cc(-c2noc(-c3ccc4c(c3)nnn4C3CCCC3)n2)ccn1` [Compound 174, 1-cyclopentyl-5-[3-(pyridin-4-yl)-1,2,4-oxadiazol-5-yl]-1H-1,2,3-benzotriazole], the EC50 is less than 316 nM.
Turning to `COC(=O)NS(=O)(=O)n1c(=O)oc2cc(-c3nnc(-c4ccccc4OC)o3)ccc21` [Compound 342, methyl N-({6-[5-(2-methoxyphenyl)-1,3,4-oxadiazol-2-yl]-2-oxo-2,3-dihydro-1,3-benzoxazol-3-yl}sulfonyl)carbamate], the EC50 is more than 316 nM.
In the case of `CCC1(CC)CC(=O)c2cc(-c3nc(-c4ccc(C(=O)NC)cc4)no3)ccc2O1` [Compound 185, 4-(5-(2,2-diethyl-4-oxochroman-6-yl)-1,2,4-oxadiazol-3-yl)-N-methylbenzamide], the EC50 is less than 316 nM.
As for `COc1ccccc1-c1nnc(-c2ccc3[nH]c(=O)oc3c2)o1` [Compound 349, 6-[5-(2-methoxyphenyl)-1,3,4-oxadiazol-2-yl]-2,3-dihydro-1,3-benzoxazol-2-one], the EC50 was less than 316 nM.
As for `N#Cc1cc(-c2nc(-c3ccc4c(c3)CCC(=O)N4)no2)ccc1N` [Compound 345, 2-amino-5-[3-(2-oxo-1,2,3,4-tetrahydro-quinolin-6-yl)-1,2,4-oxadiazol-5-yl]benzonitrile], the EC50 was more than 316 nM.
On to `COc1ccc(-c2noc(-c3ccc4c(c3)nnn4C(C)C)n2)cc1OC` [Compound 230, 3-(3,4-dimethoxy-phenyl)-5-(1-isopropyl-1H-benzo[d][1,2,3]triazol-5-yl)-1,2,4-oxadiazole], for which the EC50 was more than 316 nM.
Same read-out and setting: next, `CC(C)n1nnc2cc(-c3nc(-c4ccccn4)no3)ccc21` [Compound 241, 1-(propan-2-yl)-5-[3-(pyridin-2-yl)-1,2,4-oxadiazol-5-yl]-1H-1,2,3-benzotriazole]: more than 316 nM; `N#Cc1cc(-c2nc(-c3ccc4c(c3)CCC(=O)N4)no2)ccc1NCC1CC1` [Compound 302, 2-((cyclopropyl-methyl)amino)-5-(3-(2-oxo-1,2,3,4-tetrahydroquinolin-6-yl)-1,2,4-oxadiazol-5-yl)benzonitrile]: less than 316 nM; `CC(C)n1ccc2cc(-c3nc(-c4ccccc4OC(F)(F)F)no3)ccc21` [Compound 321, 5-(1-isopropyl-1H-indol-5-yl)-3-(2-(trifluoro-methoxy)phenyl)-1,2,4-oxadiazole]: more than 316 nM.
On the same count and under the same terms, as for `COc1cccc(-c2nc(-c3ccc4c(c3)nnn4C(C)C)no2)c1` [Compound 299, 3-(1-isopropylbenzo-triazol-5-yl)-5-(3-methoxyphenyl)-1,2,4-oxadiazole], the figure is more than 316 nM.
`CCC1(CC)CC(=O)c2cc(-c3nsc(-c4ccc5c(c4)nnn5C(C)C)n3)ccc2O1` [Compound 143, 2,2-diethyl-6-(5-(1-isopropyl-1H-benzo[d][1,2,3]triazol-5-yl)-1,2,4-thiadiazol-3-yl)chroman-4-one]: the EC50 is more than 316 nM.
Same read-out and setting: next, `O=C1CC2(CCOCC2)Oc2ccc(-c3nc(-c4cccnc4)no3)cc21` [Compound 214, 6-[3-(pyridin-3-yl)-1,2,4-oxadiazol-5-yl]-3,4-dihydrospiro[1-benzopyran-2,4′-oxane]-4-one]: more than 316 nM; `CC(C)n1ncc2cc(-c3nc(-c4ccccc4Cl)no3)ccc21` [Compound 330, 3-(2-chlorophenyl)-5-(1-isopropyl-1H-indazol-5-yl)-1,2,4-oxadiazole]: less than 316 nM; `Brc1ccccc1-c1noc(-c2ccc3c(c2)nnn3C2CC2)n1` [Compound 83, 5-[3-(2-bromophenyl)-1,2,4-oxadiazol-5-yl]-1-cyclopropyl-1H-1,2,3-benzotriazole]: less than 316 nM.
In the case of `CCC1(CC)CC(=O)c2cc(-c3nc(-c4ccc5[nH]cnc5c4)no3)ccc2O1` [Compound 211, 6-(3-(1H-benzo[d]imidazol-5-yl)-1,2,4-oxadiazol-5-yl)-2,2-diethylchroman-4-one], the EC50 is more than 316 nM.
For `CCC1(CC)CC(=O)c2cc(-c3nc(-c4ccc(C)cc4)no3)ccc2O1` [Compound 269, 2,2-diethyl-6-[3-(p-tolyl)-1,2,4-oxadiazol-5-yl]chroman-4-one], the EC50 was more than 316 nM.
In the case of `CCC1(CC)CC(=O)c2cc(-c3nc(-c4ccccn4)no3)ccc2O1` [Compound 111, 2,2-diethyl-6-[3-(2-pyridyl)-1,2,4-oxadiazol-5-yl]chroman-4-one], the EC50 was more than 316 nM.
